# Data reported in ChEMBL document CHEMBL6177933, “Discovery of Sophoridine α-Aryl Propionamide Derivative ZM600 as a Novel Antihepatic Fibrosis Agent” (J Med Chem, 2024).
# The source made the active and inactive calls. The calls are words filed in the database; no cut-off is given here.
# How the values were obtained:
# [1] = test system: Mus musculus; assay: Antifibrotic activity against CCL4-induced C57BL/6J mouse hepatic fibrosis model assessed as reduction in liver edema at 15 to 30 mg/kg, po administered via gavage for 4 weeks starting from 5th week of CCL4 stimulation by H and E staining based histopathological analysis; type: functional, organism-based; settings: dose 15-30 mg/kg
# [2] = test system: Mus musculus; assay: Antifibrotic activity against BDL-induced C57BL/6J mouse hepatic fibrosis model assessed as reduction in alphaSMA mRNA expression in liver at 15 to 30 mg/kg, po administered via gavage starting from 3 days post-BDL by qRT-PCR analysis; type: functional, organism-based; settings: dose 15-30 mg/kg
# [3] = test system: Mus musculus; assay: In vivo inhibition of Smad2 phosphorylation in CCL4-induced C57BL/6J mouse hepatic fibrosis model at 15 to 30 mg/kg, po administered via gavage for 4 weeks starting from 5th week of CCL4 stimulation by Western blot analysis; type: functional, organism-based; settings: dose 15-30 mg/kg
# [4] = test system: Mus musculus; assay: Antifibrotic activity against CCL4-induced C57BL/6J mouse hepatic fibrosis model assessed as reduction in collagen deposition in liver at 15 to 30 mg/kg, po administered via gavage for 4 weeks starting from 5th week of CCL4 stimulation by Sirius red and Masson's trichrome staining based assay; type: functional, organism-based; settings: dose 15-30 mg/kg
# [5] = test system: RAW264.7; assay: Antiinflammatory activity in mouse RAW264.7 cells assessed as inhibition of TGFbeta1-induced alpha-SMA mRNA expression at 5 to 20 uM preincubated for 2 hrs […] and measured after 48 hrs by qRT-PCR analysis; type: functional, cell-based; settings: dose 5-20 µM, time 50.0 hrs
# [6] = test system: Mus musculus; assay: In vivo inhibition of p65 phosphorylation in CCL4-induced C57BL/6J mouse hepatic fibrosis model at 15 to 30 mg/kg, po administered via gavage for 4 weeks starting from 5th week of CCL4 stimulation by Western blot analysis; type: functional, organism-based; settings: dose 15-30 mg/kg
# [7] = test system: RAW264.7; assay: Antiinflammatory activity in mouse RAW264.7 cells assessed as inhibition of LPS-induced collagen 1 expression at 5 to 20 uM preincubated for 2 hrs followed by LPS stimulation and measured after 48 hrs by Western blot analysis; type: functional, cell-based; settings: dose 5-20 µM, time 50.0 hrs
# [8] = test system: Mus musculus; assay: In vivo inhibition of p38 phosphorylation in CCL4-induced C57BL/6J mouse hepatic fibrosis model at 15 to 30 mg/kg, po administered via gavage for 4 weeks starting from 5th week of CCL4 stimulation by Western blot analysis; type: functional, organism-based; settings: dose 15-30 mg/kg
# [9] = test system: Mus musculus; assay: Antifibrotic activity against CCL4-induced C57BL/6J mouse hepatic fibrosis model assessed as reduction in hard texture of liver at 15 to 30 mg/kg, po administered via gavage for 4 weeks starting from 5th week of CCL4 stimulation; type: functional, organism-based; settings: dose 15-30 mg/kg
# [10] = target: Mothers against decapentaplegic homolog 2 (Homo sapiens) (UniProt Q15796); assay: Inhibition of TGFbeta1-induced Smad2 phosphorylation in human LX-2 cells preincubated for 2 hrs followed by […] stimulation and measured after 2 hrs by Western blot analysis; type: cell-based; settings: dose 5-20 µM, time 4.0 hrs
# [11] = test system: Mus musculus; assay: In vivo inhibition of JNK phosphorylation in CCL4-induced C57BL/6J mouse hepatic fibrosis model at 15 to 30 mg/kg, po administered via gavage for 4 weeks starting from 5th week of CCL4 stimulation by Western blot analysis; type: functional, organism-based; settings: dose 15-30 mg/kg
# [12] = test system: Mus musculus; assay: Antifibrotic activity against CCL4-induced C57BL/6J mouse hepatic fibrosis model assessed as reduction in alphaSMA expression in liver at 15 to 30 mg/kg, po administered via gavage for 4 weeks starting from 5th week of CCL4 stimulation by Western blot analysis; type: functional, organism-based; settings: dose 15-30 mg/kg
# [13] = test system: RAW264.7; assay: Antiinflammatory activity in mouse RAW264.7 cells assessed as inhibition of LPS-induced alpha-SMA expression at 5 to 20 uM preincubated for 2 hrs followed by LPS stimulation and measured after 48 hrs by Western blot analysis; type: functional, cell-based; settings: dose 5-20 µM, time 50.0 hrs
# [14] = test system: Mus musculus; assay: Antifibrotic activity against CCL4-induced C57BL/6J mouse hepatic fibrosis model assessed as reduction in rough surface of liver at 15 to 30 mg/kg, po administered via gavage for 4 weeks starting from 5th week of CCL4 stimulation; type: functional, organism-based; settings: dose 15-30 mg/kg
# [15] = test system: Mus musculus; assay: Antifibrotic activity against CCL4-induced C57BL/6J mouse hepatic fibrosis model assessed as reduction in infiltration of inflammatory cells in liver at 15 to 30 mg/kg, po administered via gavage for 4 weeks starting from 5th week of CCL4 stimulation by H and E staining based histopathological analysis; type: functional, organism-based; settings: dose 15-30 mg/kg
# [16] = Cytotoxicity against human LX-2 cells assessed as reduction in cell viability measured after 48 hrs by CCK-8 assay; type: toxicity, cell-based
# [17] = test system: Mus musculus; assay: Antifibrotic activity against BDL-induced C57BL/6J mouse hepatic fibrosis model assessed as reduction in collagen 1 mRNA expression in liver at 15 to 30 mg/kg, po administered via gavage starting from 3 days post-BDL by qRT-PCR analysis; type: functional, organism-based; settings: dose 15-30 mg/kg
# [18] = test system: Mus musculus; assay: In vivo inhibition of AKT phosphorylation in BDL-induced C57BL/6J mouse hepatic fibrosis model at 15 to 30 mg/kg, po administered via gavage starting from 3 days post-BDL by Western blot analysis; type: functional, organism-based; settings: dose 15-30 mg/kg
# [19] = test system: RAW264.7; assay: Antiinflammatory activity in mouse RAW264.7 cells assessed as inhibition of TGFbeta1-induced collagen 1 mRNA expression at 5 to 20 uM preincubated for 2 hrs […] and measured after 48 hrs by qRT-PCR analysis; type: functional, cell-based; settings: dose 5-20 µM, time 50.0 hrs
# [20] = test system: Mus musculus; assay: Antifibrotic activity against BDL-induced C57BL/6J mouse hepatic fibrosis model assessed as reduction in collagen 1 expression in liver at 15 to 30 mg/kg, po administered via gavage starting from 3 days post-BDL by Western blot analysis; type: functional, organism-based; settings: dose 15-30 mg/kg
# [21] = test system: Mus musculus; assay: Antifibrotic activity against BDL-induced C57BL/6J mouse hepatic fibrosis model assessed as improvement in histological changes at 15 to 30 mg/kg, po administered via gavage starting from 3 days post-BDL; type: functional, organism-based; settings: dose 15-30 mg/kg
# [22] = test system: Mus musculus; assay: In vivo inhibition of ERK1/2 phosphorylation in CCL4-induced C57BL/6J mouse hepatic fibrosis model at 15 to 30 mg/kg, po administered via gavage for 4 weeks starting from 5th week of CCL4 stimulation by Western blot analysis; type: functional, organism-based; settings: dose 15-30 mg/kg
# [23] = test system: Mus musculus; assay: In vivo inhibition of p65 phosphorylation in BDL-induced C57BL/6J mouse hepatic fibrosis model at 15 to 30 mg/kg, po administered via gavage starting from 3 days post-BDL by Western blot analysis; type: functional, organism-based; settings: dose 15-30 mg/kg
# [24] = test system: Mus musculus; assay: Antifibrotic activity against CCL4-induced C57BL/6J mouse hepatic fibrosis model assessed as reduction in alphaSMA expression in liver at 15 to 30 mg/kg, po administered via gavage for 4 weeks starting from 5th week of CCL4 stimulation by immunohistochemical staining based assay; type: functional, organism-based; settings: dose 15-30 mg/kg
# [25] = test system: Mus musculus; assay: Antifibrotic activity against BDL-induced C57BL/6J mouse hepatic fibrosis model assessed as improvement in histological changes at 15 to 30 mg/kg, po administered via gavage starting from 3 days post-BDL by H and E staining based assay; type: functional, organism-based; settings: dose 15-30 mg/kg
# [26] = test system: Mus musculus; assay: In vivo inhibition of Smad2 phosphorylation in BDL-induced C57BL/6J mouse hepatic fibrosis model at 15 to 30 mg/kg, po administered via gavage starting from 3 days post-BDL by Western blot analysis; type: functional, organism-based; settings: dose 15-30 mg/kg
# [27] = test system: Mus musculus; assay: Antifibrotic activity against BDL-induced C57BL/6J mouse hepatic fibrosis model assessed as reduction in alphaSMA expression in liver at 15 to 30 mg/kg, po administered via gavage starting from 3 days post-BDL by Western blot analysis; type: functional, organism-based; settings: dose 15-30 mg/kg
# [28] = test system: Mus musculus; assay: In vivo inhibition of Smad3 phosphorylation in BDL-induced C57BL/6J mouse hepatic fibrosis model at 15 to 30 mg/kg, po administered via gavage starting from 3 days post-BDL by Western blot analysis; type: functional, organism-based; settings: dose 15-30 mg/kg
# Sequence of Mothers against decapentaplegic homolog 2 (Homo sapiens) (Q15796 whole entry): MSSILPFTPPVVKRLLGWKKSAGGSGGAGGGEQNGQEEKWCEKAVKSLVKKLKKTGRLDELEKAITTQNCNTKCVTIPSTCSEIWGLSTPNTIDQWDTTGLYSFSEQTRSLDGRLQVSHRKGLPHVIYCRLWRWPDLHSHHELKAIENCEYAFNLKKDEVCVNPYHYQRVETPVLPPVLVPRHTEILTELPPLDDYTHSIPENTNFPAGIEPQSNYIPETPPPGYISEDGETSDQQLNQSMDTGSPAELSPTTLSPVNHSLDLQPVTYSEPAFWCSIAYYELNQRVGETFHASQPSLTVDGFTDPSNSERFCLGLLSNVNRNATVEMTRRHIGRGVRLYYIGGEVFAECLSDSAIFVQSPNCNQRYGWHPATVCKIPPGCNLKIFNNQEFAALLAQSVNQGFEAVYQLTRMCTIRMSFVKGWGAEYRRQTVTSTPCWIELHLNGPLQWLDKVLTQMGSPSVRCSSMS
structure (smiles),measurement,setting,value
COC(=O)CCC[C@@H]1[C@H]2CCCN3CCC[C@H](CN1C(=O)C(C)c1ccc(-c4ccccc4)c(F)c1)[C@@H]23 (stereo partly drawn),Activity,[1],Active
same,Activity,[2],Active
same,inhibition,[3],Active
same,Activity,[4],Active; Dramatically Decreased The Collagen Deposition
same,inhibition,[5],Active
same,inhibition,[6],Active
same,inhibition,[7],Active
same,inhibition,[8],inactive
same,Activity,[9],Active; Significant Alleviation Observed
same,inhibition,[10],Dose-dependent-effect
same,inhibition,[11],inactive
same,Activity,[12],Active
same,inhibition,[13],Active
same,Activity,[14],Active; Significant Alleviation Observed
same,Activity,[15],Active
same,IC50 at 48 h,[16],38.2 µM
same,Activity,[17],Active
same,inhibition,[18],Active
same,inhibition,[19],Active
same,Activity,[20],Active
same,Activity,[21],Active
same,inhibition,[22],inactive
same,inhibition,[23],Active
same,Activity,[24],Active
same,Activity,[25],Active
same,inhibition,[26],Active
same,Activity,[27],Active
same,inhibition,[28],Active
